Reference: article PMC9505425, “Targeting of the Mitochondrial TET1 Protein by Pyrrolo[3,2-b]pyrrole Chelators” (International Journal of Molecular Sciences, 2022)
Where “and” joins values, the source holds several entries; their conditions need not be identical. Equal values may be shown once.

Key:
[1] = MTT cytotoxicity assay, HF-P4; format: cell-based, human; conditions: human, HF-P4 normal human dermal fibroblasts, repeats, read-out: Cell viability %; for viability at 48 h, 0.1 µM: HF-P4, 100 nM; for viability at 48 h, 0.5 µM: HF-P4, 500 nM; for viability at 48 h, 0.75 µM: HF-P4, 750 nM; for viability at 48 h, 1 µM: HF-P4, 1 uM; for viability at 48 h, 2.5 µM: HF-P4, 2.5 uM; for viability at 48 h, 5 µM: HF-P4, 5 uM; for viability at 48 h, 7.5 µM: HF-P4, 7.5 uM; for viability at 48 h, 10 µM: HF-P4, 10 uM; for viability at 48 h, 15 µM: HF-P4, 15 uM; for viability at 48 h, 20 µM: HF-P4, 20 uM
Outline: (§1)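 Cells seeded at 1.0 × 10^5 per well, grown 24 h, then exposed 48 h to compounds at 0.1–20 μM (DMSO ≤1%). MTT added for 2 h, formazan dissolved in DMSO, absorbance read at 570 nm. IC50 calculated relative to untreated cells (100%).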

HF-P4 cells = assay: MTT cytotoxicity assay, HF-P4; format: cell-based, human; conditions: 48 h; for Cell viability %: repeats; for IC50: Homo sapiens, MTT
Outline: as §1

H-1299 cells = assay: MTT cytotoxicity assay, H-1299; format: cell-based, human; conditions: Homo sapiens; for viability at 2.5 µM: H-1299, 2.5 uM; for viability at 5 µM: H-1299, 5 uM; for viability at 10 µM: H-1299, 10 uM; for viability at 15 µM: H-1299, 15 uM; for viability at 20 µM: H-1299, 20 uM; for IC50: NCI-H1299, MTT, 48 h
Outline: (§2)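 Cells seeded at 1.0 × 10^5/well, grown 24 h, then exposed 48 h to compounds at 0.1–20 μM (≤1% DMSO); U118-MG in DMEM, H1299 in RPMI 1640, both with 10% FBS, 37 °C. MTT 2 h, formazan in DMSO read at 570 nm; IC50 relative to untreated cells (100%).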

U-118 MG cells = assay: MTT cytotoxicity assay, U-118 MG; format: cell-based, human; conditions: 48 h; for IC50: MTT
Outline: as §2

[2] = NCI-H1299, 48 h, repeats, read-out: Cell viability %
[3] = Homo sapiens, U-118-MG, U-118 MG, 100 nM, repeats, read-out: Cell viability %
[4] = Homo sapiens, U-118-MG, U-118 MG, 1 uM, repeats, read-out: Cell viability %
[5] = Homo sapiens, U-118-MG, U-118 MG, 2.5 uM, repeats, read-out: Cell viability %
[6] = Homo sapiens, U-118-MG, U-118 MG, 5 uM, repeats, read-out: Cell viability %
[7] = Homo sapiens, U-118-MG, U-118 MG, 7.5 uM, repeats, read-out: Cell viability %
[8] = Homo sapiens, U-118-MG, U-118 MG, 10 uM, repeats, read-out: Cell viability %
[9] = Homo sapiens, U-118-MG, U-118 MG, 15 uM, repeats, read-out: Cell viability %
[10] = Homo sapiens, U-118-MG, U-118 MG, 20 uM, repeats, read-out: Cell viability %
[11] = U-118 MG, 100 nM, repeats, 0.1 µM
[12] = U-118 MG, 500 nM, repeats, 0.5 µM
[13] = U-118 MG, 750 nM, repeats, 0.75 µM

In the case of `COc1cccc(/C=N/NC(=O)c2ccc(-c3cc4c(cc(-c5ccc(C(=O)N/N=C/c6cccc(OC)c6O)cc5)n4-c4ccc(C)cc4)n3-c3ccc(C)cc3)cc2)c1O` [Compound 5], the viability at 48 h, 0.1 µM [1] is reported as 104%, the viability at 48 h, 0.5 µM [1] is reported as 105% and the viability at 48 h, 0.75 µM [1] is reported as 84.2%. The viability at 48 h, 1 µM [1] was 105%, the viability at 48 h, 2.5 µM [1] was 96.8% and the viability at 48 h, 5 µM [1] was 84%. It also gave a viability at 48 h, 7.5 µM [1] of 74.5%, a viability at 48 h, 10 µM [1] of 76.7% and a viability at 48 h, 15 µM [1] of 63%. The viability at 48 h, 20 µM [1] was 52.2%, the Cell viability % (HF-P4 cells; HF-P4, 100 nM, 0.1 µM) was 105.3072% and 105.0738% and the Cell viability % (HF-P4 cells; HF-P4, 500 nM, 0.5 µM) was 98.21% and 101.0423%. The Cell viability % (HF-P4 cells; HF-P4, 750 nM, 0.75 µM) was 95.79% and 102.0649%, the Cell viability % (HF-P4 cells; HF-P4, 1 uM, 1 µM) was 86.8% and 100.59% and the Cell viability % (HF-P4 cells; HF-P4, 2.5 uM, 2.5 µM) was 91.7616% and 90.46%. For the same molecule, the Cell viability % (HF-P4 cells; HF-P4, 5 uM, 5 µM) was 65.3% and 72.65%, the Cell viability % (HF-P4 cells; HF-P4, 7.5 uM, 7.5 µM) was 71.79% and 64.35% and the Cell viability % (HF-P4 cells; HF-P4, 10 uM, 10 µM) was 58.3808% and 56.93%. The Cell viability % (HF-P4 cells; HF-P4, 15 uM, 15 µM) was 60.12% and 45.66%, the Cell viability % (HF-P4 cells; HF-P4, 20 uM, 20 µM) was 55.03% and 53.24% and the IC50 (HF-P4 cells) was over 20 µM. It also gave a viability at 0.1 µM (H-1299 cells; NCI-H1299, 48 h, H-1299, 100 nM, repeats, read-out: Cell viability %) of 113%, a viability at 0.5 µM (H-1299 cells; NCI-H1299, 48 h, H-1299, 500 nM, repeats, read-out: Cell viability %) of 125% and a viability at 2.5 µM (H-1299 cells; [2]) of 106%. The viability at 5 µM (H-1299 cells; [2]) was 85.7%, the viability at 7.5 µM (H-1299 cells; NCI-H1299, 48 h, H-1299, 7.5 uM, repeats, read-out: Cell viability %) was 56.6% and the viability at 10 µM (H-1299 cells; [2]) was 47.9%. For the same molecule, the viability at 15 µM (H-1299 cells; [2]) was 46.5%, the viability at 20 µM (H-1299 cells; [2]) was 31.4% and the IC50 (H-1299 cells) was 10.1 µM. It also gave a viability at 0.1 µM (U-118 MG cells; [3]) of 97.8%, a viability at 0.5 µM (U-118 MG cells; Homo sapiens, U-118-MG, U-118 MG, 500 nM, repeats, read-out: Cell viability %) of 91.7% and a viability at 1 µM (U-118 MG cells; [4]) of 87.4%. It also gave a viability at 2.5 µM (U-118 MG cells; [5]) of 58.2%, a viability at 5 µM (U-118 MG cells; [6]) of 65.3% and a viability at 7.5 µM (U-118 MG cells; [7]) of 47.2%. For the same molecule, the viability at 10 µM (U-118 MG cells; [8]) was 45.5%, the viability at 15 µM (U-118 MG cells; [9]) was 28.9% and the viability at 20 µM (U-118 MG cells; [10]) was 21%. For the same molecule, the IC50 (U-118 MG cells; Homo sapiens, U-118-MG) was 6.85 µM, the Cell viability % (U-118 MG cells; [11]) was 97.5% and 97.94% and the Cell viability % (U-118 MG cells; [12]) was 83.56% and 99.84%. The Cell viability % (U-118 MG cells; [13]) was 101.0241% and 97.49% and 72.15%, the Cell viability % (U-118 MG cells; U-118 MG, 1 uM, repeats) was 91.36% and 94.35% and the Cell viability % (U-118 MG cells; U-118 MG, 2.5 uM, repeats) was 62.67% and 72.48%. The Cell viability % (U-118 MG cells; U-118 MG, 5 uM, repeats) was 61.9341% and 54.55%, the Cell viability % (U-118 MG cells; U-118 MG, 7.5 uM, repeats) was 44.6% and 36.58% and the Cell viability % (U-118 MG cells; U-118 MG, 10 uM, repeats) was 44.7379% and 34.31%. The Cell viability % (U-118 MG cells; U-118 MG, 15 uM, repeats) was 30.3% and 23.7185%, the Cell viability % (U-118 MG cells; U-118 MG, 20 uM, repeats) was 24.2419% and 18.84% and the melting point was 321 to 322 °C.
For `Cc1ccc(-n2c(-c3ccc(C(=O)N/N=C/c4cc(F)ccc4O)cc3)cc3c2cc(-c2ccc(C(=O)N/N=C/c4cc(F)ccc4O)cc2)n3-c2ccc(C)cc2)cc1` [Compound 3], the viability at 48 h, 0.1 µM [1] was 95.8%, the viability at 48 h, 0.5 µM [1] was 99.9% and the viability at 48 h, 0.75 µM [1] was 107%. The viability at 48 h, 1 µM [1] was 100%, the viability at 48 h, 2.5 µM [1] was 87.1% and the viability at 48 h, 5 µM [1] was 85.8%. The viability at 48 h, 7.5 µM [1] was 78.7%, the viability at 48 h, 10 µM [1] was 82.6% and the viability at 48 h, 15 µM [1] was 65.6%. The viability at 48 h, 20 µM [1] was 59%, the Cell viability % (HF-P4 cells; HF-P4, 100 nM, 0.1 µM) was 96.12% and 98.08% and the Cell viability % (HF-P4 cells; HF-P4, 500 nM, 0.5 µM) was 100.1756% and 103.312%. The Cell viability % (HF-P4 cells; HF-P4, 750 nM, 0.75 µM) was 98.1566% and 91.216%, the Cell viability % (HF-P4 cells; HF-P4, 1 uM, 1 µM) was 97.13% and 98.88% and the Cell viability % (HF-P4 cells; HF-P4, 2.5 uM, 2.5 µM) was 92.78% and 93.78%. For the same molecule, the Cell viability % (HF-P4 cells; HF-P4, 5 uM, 5 µM) was 90.27% and 73.392%, the Cell viability % (HF-P4 cells; HF-P4, 7.5 uM, 7.5 µM) was 83.18% and 77.088% and the Cell viability % (HF-P4 cells; HF-P4, 10 uM, 10 µM) was 74.37% and 72.544%. The Cell viability % (HF-P4 cells; HF-P4, 15 uM, 15 µM) was 66.4% and 65.2%, the Cell viability % (HF-P4 cells; HF-P4, 20 uM, 20 µM) was 62.78% and 65.696% and the IC50 (HF-P4 cells) was over 20 µM. The viability at 2.5 µM (H-1299 cells; [2]) was 124%, the viability at 5 µM (H-1299 cells; [2]) was 85.7% and the viability at 10 µM (H-1299 cells; [2]) was 47.9%. It also gave a viability at 15 µM (H-1299 cells; [2]) of 58.9%, a viability at 20 µM (H-1299 cells; [2]) of 31.4% and an IC50 (H-1299 cells) of 10.6 µM. The viability at 0.1 µM (U-118 MG cells; [3]) was 90.9%, the viability at 0.75 µM (U-118 MG cells; Homo sapiens, U-118-MG, U-118 MG, 750 nM, repeats, read-out: Cell viability %) was 70.2% and the viability at 1 µM (U-118 MG cells; [4]) was 75.9%. For the same molecule, the viability at 2.5 µM (U-118 MG cells; [5]) was 64.7%, the viability at 5 µM (U-118 MG cells; [6]) was 57.1% and the viability at 7.5 µM (U-118 MG cells; [7]) was 48.3%. For the same molecule, the viability at 10 µM (U-118 MG cells; [8]) was 45.6%, the viability at 15 µM (U-118 MG cells; [9]) was 42.6% and the viability at 20 µM (U-118 MG cells; [10]) was 35.1%. For the same molecule, the IC50 (U-118 MG cells; Homo sapiens, U-118-MG) was 19.5 µM, the Cell viability % (U-118 MG cells; [11]) was 99.65% and 109.711% and the Cell viability % (U-118 MG cells; [12]) was 87.97% and 59.47% and 56.29%. For the same molecule, the Cell viability % (U-118 MG cells; [13]) was 72.44% and 70.85%, the Cell viability % (U-118 MG cells; U-118 MG, 1 uM, repeats) was 71.04% and 66.44% and the Cell viability % (U-118 MG cells; U-118 MG, 2.5 uM, repeats) was 61.47% and 71.58%. For the same molecule, the Cell viability % (U-118 MG cells; U-118 MG, 5 uM, repeats) was 68.44% and 68.48%, the Cell viability % (U-118 MG cells; U-118 MG, 7.5 uM, repeats) was 52.95% and 55.16% and the Cell viability % (U-118 MG cells; U-118 MG, 10 uM, repeats) was 53.29% and 53%. For the same molecule, the Cell viability % (U-118 MG cells; U-118 MG, 15 uM, repeats) was 46.07% and 47.09%, the Cell viability % (U-118 MG cells; U-118 MG, 20 uM, repeats) was 30.47% and 32.82% and the melting point was 337 to 338 °C.
